From US20080287430A1, “Furan Compounds Useful As Ep1 Receptor Antagonists” (priority 2005, published 2008) come the findings set out here.

Counter-ions that a name gives are not always drawn.

In the test the target is T1, human EP1 receptor (Homo sapiens, UniProt P34995).
T1 construct: expressed in transfected cells; host or cells: CHO-K1
T1 sequence (P34995 1-402): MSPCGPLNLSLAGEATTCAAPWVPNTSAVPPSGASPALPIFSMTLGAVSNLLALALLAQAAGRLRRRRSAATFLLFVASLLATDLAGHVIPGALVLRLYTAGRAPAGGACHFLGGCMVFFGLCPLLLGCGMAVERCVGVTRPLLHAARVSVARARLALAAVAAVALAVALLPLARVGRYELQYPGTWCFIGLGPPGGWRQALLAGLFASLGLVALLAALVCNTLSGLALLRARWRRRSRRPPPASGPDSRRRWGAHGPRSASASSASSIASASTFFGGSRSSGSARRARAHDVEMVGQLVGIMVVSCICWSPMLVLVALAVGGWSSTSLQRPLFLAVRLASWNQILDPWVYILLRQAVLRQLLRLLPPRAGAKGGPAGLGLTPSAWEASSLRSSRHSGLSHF
Put plainly: human EP1 calcium mobilisation assay. Format: cell-based. The settings on record: human EP1, PGE2-induced calcium mobilisation in CHO-K1 cells; free bases or sodium salts; averages of a number of experiments; read-out: functional pKi value (converted). The protocol:
Briefly, the antagonist properties of compounds are assessed by their ability to inhibit the mobilisation of intracellular calcium ([Ca^2+]i) in response to activation of EP1 or EP3 receptors by the natural agonist hormone prostaglandin E2 (PGE2). Increasing concentrations of antagonist reduce the amount of calcium that a given concentration of PGE2 can mobilise. The net effect is to displace the PGE2 concentration-effect curve to higher concentrations of PGE2. The amount of calcium produced is assessed using a calcium-sensitive fluorescent dye such as Fluo-4, AM and a suitable instrument such as a Fluorimetric Imaging Plate Reader (FLIPR). Increasing amounts of [Ca^2+]i produced by receptor activation increase the amount of fluorescence produced by the dye and give rise to an increasing signal. The signal may be detected using the FLIPR instrument and the data generated may be analysed with suitable curve-fitting software.
The human EP1 or EP3 calcium mobilisation assay (hereafter referred to as ‘the calcium assay’) utilises Chinese hamster ovary-K1(CHO-K1) cells into which a stable (pCIN; BioTechniques 20 (1996): 102-110) vector containing either EP1 or EP3 cDNA has previously been transfected. Cells are cultured in suitable flasks containing culture medium such as DMEM:F-12 supplemented with 10% v/v foetal calf serum, 2 mM L-glutamine, 0.25 mg/ml geneticin, 100 μM flurbiprofen and 10 μg/ml puromycin.
For assay, cells are harvested using a proprietary reagent that dislodges cells such as Versene. Cells are re-suspended in a suitable quantity of fresh culture media for introduction into a 384-well plate. Following incubation for 24 hours at 37° C. the culture media is replaced with a medium containing Fluo-4 and the detergent pluronic acid, and a further incubation takes place. Concentrations of compounds are then added to the plate in order to construct concentration-effect curves. This may be performed on the FLIPR in order to assess the agonist properties of the compounds. Concentrations of PGE2 are then added to the plate in order to assess the antagonist properties of the compounds.
The data so generated may be analysed by means of a computerised curve-fitting routine. The concentration of compound that elicits a half-maximal inhibition of the calcium mobilisation induced by PGE2 (pIC50) may then be estimated.
In general terms: A change in cytosolic calcium serves as a functional read-out for many receptors and channels.
Turning to `CC(C)COc1ccc(Cl)cc1Cc1ccc(-c2nc3cnc4ccccc4c3[nH]2)o1` [Example 118, 2-[5-({5-Chloro-2-[(2-methylpropyl)oxy]phenyl}-methyl)-2-furanyl]-1H-imidazo[4,5-c]quinoline], the Ki is less than 1 µM. As to `CCN(CC)Cc1ccc2nc(-c3ccc(Cc4cc(Cl)ccc4OCC(C)C)o3)[nH]c2c1` [Example 150, N-({2-[5-({5-Chloro-2-[(2-methylpropyl)oxy]-phenyl}methyl)-2-furanyl]-1H-benzimidazol-5-yl}methyl)-N-ethylethanaminedihydrochloride], the Ki is less than 1 µM.

On to `O=C(Nc1c(F)cccc1F)c1ccc(Cc2cc(Cl)ccc2OCc2ccccn2)o1` [Example 91, 5-({5-Chloro-2-[(2-pyridinylmethyl)oxy]phenyl}methyl)-N-(2,6-difluorophenyl)-2-furancarboxamide], for which the Ki was less than 1 µM. For `CCCOc1ccc(Cl)cc1Cc1ccc(C(=O)Nc2c(F)cccc2F)o1` [Example 93, 5-{[5-Chloro-2-(propyloxy)phenyl]methyl}-N-(2,6-difluorophenyl)-2-furancarboxamide], the Ki is less than 1 µM. For `CC(C)COc1ccc(Cl)cc1Cc1ccc(-c2nc3ccc(CN(C)CC4CCOCC4)cc3[nH]2)o1` [Example 152, ({2-[5-({5-Chloro-2-[(2-methylpropyl)oxy]-phenyl}methyl)-2-furanyl]-1H-benzimidazol-5-yl}methyl)methyl(tetrahydro-2H-pyran-4-ylmethyl)aminedihydrochloride], the Ki is less than 1 µM.

`CC(C)COc1ccc(Cl)cc1Cc1ccc(C(=O)NCc2ccc(C(N)=O)cc2)o1` [Example 46, N-{[4-(Aminocarbonyl)-phenyl]methyl}-5-({5-chloro-2-[(2-methylpropyl)oxy]phenyl}methyl)-2-furancarboxamide]: the Ki was less than 1 µM. For `CC(C)COc1ccc(Cl)cc1Cc1ccc(-c2cc[nH]n2)o1` [Example 168] the value was less than 1 µM; for `O=C(O)c1ccc(Cc2cc(Cl)ccc2OCCc2ccccc2)o1` [Example 12, Sodium 5-({5-chloro-2-[(2-phenylethyl)oxy]phenyl}methyl)-2-furancarboxylate], less than 1 µM. For `CN(C)Cc1ccc2nc(-c3ccc(Cc4cc(Cl)ccc4OCc4ccccc4)o3)[nH]c2c1` [Example 138, ({2-[5-({5-Chloro-2-[(phenylmethyl)oxy]phenyl}methyl)-2-furanyl]-1H-benzimidazol-5-yl}methyl)dimethylamine dihydrochloride], the Ki was less than 1 µM. For `CCN1CCN(c2ccc3nc(-c4ccc(Cc5cc(Cl)ccc5OCC(C)C)o4)[nH]c3c2)CC1` [Example 114, 2-[5-({5-Chloro-2-[(2-methylpropyl)oxy]-phenyl}methyl)-2-furanyl]-5-(4-ethyl-1-piperazinyl)-1H-benzimidazoletrihydrochloride], the Ki was less than 1 µM.

On to `Cc1cccc(Cl)c1NC(=O)c1ccc(Cc2cc(Cl)ccc2OCc2ccccc2)o1` [Example 74, N-(2-Chloro-6-methylphenyl)-5-({5-chloro-2-[(phenylmethyl)oxy]-phenyl}methyl)-2-furancarboxamide], for which the Ki is less than 1 µM. With `O=C(Nc1c(F)cccc1F)c1ccc(Cc2cc(Cl)ccc2OCc2ccc(Cl)cc2)o1` [Example 90, 5-[(5-Chloro-2-{[(4-chlorophenyl)methyl]oxy}-phenyl)methyl]-N-(2,6-difluorophenyl)-2-furancarboxamide] the figure was less than 1 µM. For `CC(C)COc1ccc(Cl)cc1Cc1ccc(C(=O)NCc2ccc(-c3cccnc3)cc2)o1` [Example 45, 5-({5-Chloro-2-[(2-methylpropyl)oxy]phenyl}methyl)-N-{[4-(3-pyridinyl)phenyl]methyl}-2-furancarboxamide] the value was less than 1 µM. With `CCC(CC)COc1ccc(Cl)cc1Cc1ccc(C(=O)Nc2c(F)cccc2F)o1` [Example 97, 5-({5-Chloro-2-[(2-ethylbutyl)oxy]phenyl}meth-yl)-N-(2,6-difluorophenyl)-2-furancarboxamide] the figure was less than 1 µM. With `CC(C)COc1ccc(Cl)cc1Cc1ccc(C(N)=O)o1` [Example 68, 5-({5-Chloro-2-[(2-methylpropyl)oxy]-phenyl}methyl)-2-furancarboxamide], the Ki was less than 1 µM. Take `Cc1cc(C(=O)O)oc1Cc1cc(Cl)ccc1OCC(C)C` [Example 14, Sodium 5-({5-chloro-2-[(2-methylpropyl)oxy]phenyl}methyl)-4-methyl-2-furancarboxylate]: the Ki is no more than 0.01 µM. `CC(C)COc1ccc(Cl)cc1Cc1ccc(C(=O)NCc2ccccn2)o1` [Example 58, 5-({5-Chloro-2-[(2-methylpropyl)oxy]-phenyl}methyl)-N-(2-pyridinylmethyl)-2-furancarboxamide]: the Ki was less than 1 µM. `O=C(Nc1c(F)cccc1F)c1ccc(Cc2cc(Cl)ccc2OC2CCCC2)o1` [Example 95, 5-{[5-Chloro-2-(cyclopentyloxy)phenyl]-methyl}-N-(2,6-difluorophenyl)-2-furancarboxamide]: the Ki was less than 1 µM. With `CC(C)CCOc1ccc(Cl)cc1Cc1ccc(C(=O)O)o1` [Example 11, Sodium 5-({5-chloro-2-[(3-methylbutyl)oxy]phenyl}methyl)-2-furancarboxylate], the Ki was less than 1 µM.

As for `CN(C)c1ccc(CNC(=O)c2ccc(Cc3cc(Cl)ccc3OCc3ccccc3)o2)cc1` [Example 54, 5-({5-Chloro-2-[(phenylmethyl)oxy]phenyl}methyl)-N-{[4-(dimethylamino)phenyl]methyl}-2-furancarboxamide], the Ki is less than 1 µM.

As for `O=C(Nc1ccccc1-c1ccccc1)c1ccc(Cc2cc(Cl)ccc2OCc2ccccc2)o1` [Example 75, N-2-biphenylyl-5-({5-chloro-2-[(phenylmethyl)oxy]-phenyl}methyl)-2-furancarboxamide], the Ki is greater than 1 µM. Turning to `CC(C)COc1ccc(Cl)cc1Cc1ccc(-c2nc3ccc(Br)cc3[nH]2)o1` [Example 110, 5-Bromo-2-[5-({5-chloro-2-[(2-methylpropyl)oxy]-phenyl}methyl)-2-furanyl]-1H-benzimidazolehydrochloride], the Ki was greater than 1 µM.

`Clc1ccc(OCc2ccccc2)c(Cc2ccc(-c3nc4nccnc4[nH]3)o2)c1` [Example 102, 2-[5-({5-Chloro-2-[(phenylmethyl)oxy]phenyl}methyl)-2-furanyl]-1H-imidazo[4,5-b]pyrazine]: the Ki is less than 1 µM. In the case of `CN1CCN(Cc2cccc3nc(-c4ccc(Cc5cc(Cl)ccc5OCc5ccccc5)o4)[nH]c23)CC1` [Example 160, 2-[5-({5-Chloro-2-[(phenylmethyl)oxy]-phenyl}methyl)-2-furanyl]-4-[(4-methyl-1-piperazinyl)methyl]-1H-benzimidazolehydrochloride], the Ki was less than 1 µM. On to `Fc1cccc2nc(-c3ccc(Cc4cc(Cl)ccc4OCc4ccccc4)o3)[nH]c12` [Example 131, 2-[5-({5-Chloro-2-[(phenylmethyl)oxy]-phenyl}methyl)-2-furanyl]-4-fluoro-1H-benzimidazole], for which the Ki was less than 1 µM. Consider `CC(C)COc1ccc(Cl)cc1Cc1ccc(-c2nc3cc(C(F)(F)F)ccc3[nH]2)o1` [Example 126, 2-[5-({5-Chloro-2-[(2-methylpropyl)oxy]phenyl}-methyl)-2-furanyl]-5-(trifluoromethyl)-1H-benzimidazole], for which the Ki was less than 1 µM.
